For 17 molecules, Ki results are on record in US12479825B2, “Melanocortin subtype-2 receptor (MC2R) antagonists and uses thereof” (Crinetics Pharmaceuticals, Inc., priority 2019, dated 2025).

In this test the target is T1, hMC2 receptor (Homo sapiens, UniProt Q01718).
T1 construct: host or cells: CRE-bla-CHO-K1 cells, crude membrane fraction
Description: hMC2 membrane binding assay ([125I]ACTH (1-39) Tyr23, SPA). The following applies: crude hMC2R membranes from CRE-bla-CHO-K1 cells expressing hMC2 receptor and hMRAP; 0.2 nM [125I]ACTH (1-39) Tyr23; 1.5 hours at room temperature; read-out: MC2R binding potency. The protocol: Crude membrane fractions are prepared from CRE-bla-CHO-K1 cells stably expressing hMC2 receptor and hMRAP accessory protein (Thermo Fisher). The cells are grown to 85-100% confluence on standard tissue culture dishes in GlutaMax DMEM growth media (Gibco) with following additives: 10% dialyzed FBS (Gemini), 0.1 mM NEAA (Gibco), 25 mM HEPES (Gibco), 5 μg/mL blasticidin (Goldbio), 100 μg/mL zeocin (Invitrogen), 600 μg/mL hygromycin (Goldbio). To prepare membranes, cells are scraped and collected in 1× Dulbecco's phosphate buffered saline (Corning) and then pelleted at 1000 RPM's. The cell pellet is reconstituted in membrane preparation buffer (20 mM HEPES, 6 mM MgCl2 and 1 mM EGTA, protease inhibitor tablets (Pierce) adjusted to pH 7.4), homogenized using a dounce homogenizer, and the resulting membrane fraction is pelleted by centrifugation at 12,000 RPM's. The membrane pellet is resuspended in membrane preparation buffer, snap freezed and stored at −80° C. for later use.
The hMC2 membrane binding assay utilizes the following components: radiolabel [^125I]ACTH (1-39) Tyr23 (PerkinElmer), wheat germ agglutinin coated PVT SPA beads (PerkinElmer), crude hMC2R membranes, and compounds. Briefly hMC2R membranes are incubated with SPA beads in binding assay buffer (50 mM HEPES, 5 mM MgCl2, 1 mM CaCl2, 0.2% BSA, protease inhibitor tablets (Pierce) adjusted to pH7.4) prior to assay initiation. A dose response of compound (the final concentration of compound is typically 0-10,000 nM), SPA membranes, and [^125I]ACTH (1-39) Tyr23 at a final concentration of 0.2 nM is plated in a 96-well assay plate and allowed to incubate 1.5 hours at room temperature. Assay plates are read using a Top Count NXT and Ki values for compounds are determined using a GraphPad Prism 6 non-linear regression analysis.

T1 sequence (Q01718 whole entry): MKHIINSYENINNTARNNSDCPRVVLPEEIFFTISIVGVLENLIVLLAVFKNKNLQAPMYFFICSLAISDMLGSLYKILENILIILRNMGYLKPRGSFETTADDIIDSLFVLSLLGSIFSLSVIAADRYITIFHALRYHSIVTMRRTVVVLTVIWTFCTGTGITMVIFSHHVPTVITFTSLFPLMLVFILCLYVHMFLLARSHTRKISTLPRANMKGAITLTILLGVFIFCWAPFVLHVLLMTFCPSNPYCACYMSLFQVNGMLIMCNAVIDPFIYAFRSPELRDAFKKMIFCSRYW
T1 sequence (Q8TCY5 whole entry partner): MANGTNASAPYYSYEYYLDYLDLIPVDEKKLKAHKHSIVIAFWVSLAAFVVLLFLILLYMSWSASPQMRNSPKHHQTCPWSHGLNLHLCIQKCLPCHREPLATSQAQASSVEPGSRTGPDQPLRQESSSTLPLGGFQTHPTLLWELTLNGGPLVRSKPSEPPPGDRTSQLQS

In the case of “5-{cis-4-[4-chloro-2-(difluoromethyl)phenoxy]-2-cyclopropylpiperidin-1-yl}-2′-ethoxy-N-[(3R)-1-methylpyrrolidin-3-yl]-[2,3′-bipyridine]-6-carboxamide [2-7]”, the Ki is below 10 nM.

Turning to `CCOc1ncccc1-c1ccc(N2CC[C@H](Oc3ccc(C(F)(F)F)cc3C#N)C[C@@H]2C2CC2)c(C(=O)N[C@@H]2CCN(C)C2)n1` (mixture of isomers) [2-6, 5-{cis-4-[2-cyano-4-(trifluoromethyl)phenoxy]-2-cyclopropylpiperidin-1-yl}-2′-ethoxy-N-[(3R)-1-methylpyrrolidin-3-yl]-[2,3′-bipyridine]-6-carboxamide], the Ki is below 10 nM.

Consider `CCOc1ncccc1-c1ccc(N2CC[C@H](Oc3ccc(C(F)(F)F)nc3C#N)C[C@@H]2C2CC2)c(C(=O)N[C@@H]2CCN(C)C2)n1` (mixture of isomers) [2-14, 5-(cis-4-{[2-cyano-6-(trifluoromethyl)pyridin-3-yl]oxy}-2-cyclopropylpiperidin-1-yl)-2′-ethoxy-N-[(3R)-1-methylpyrrolidin-3-yl]-[2,3′-bipyridine]-6-carboxamide], for which the Ki was below 10 nM.

Consider `CCOc1ncccc1-c1ccc(N2CC[C@H](Oc3ccc(C(F)(F)F)nc3C#N)C[C@@H]2CC)c(C(=O)N[C@@H]2CCN(C)C2)n1` (mixture of isomers) [2-15, 5-(cis-4-{[2-cyano-6-(trifluoromethyl)pyridin-3-yl]oxy}-2-ethylpiperidin-1-yl)-2′-ethoxy-N-[(3R)-1-methylpyrrolidin-3-yl]-[2,3′-bipyridine]-6-carboxamide], for which the Ki is below 10 nM.

For `CCOc1ncccc1-c1ccc(N2CC[C@H](Oc3ccc(C)cc3C#N)C[C@@H]2C2CC2)c(C(=O)N[C@@H]2CCN(C)C2)n1` (mixture of isomers) [2-16, 5-[cis-4-(2-cyano-4-methylphenoxy)-2-cyclopropylpiperidin-1-yl]-2′-ethoxy-N-[(3R)-1-methylpyrrolidin-3-yl]-[2,3′-bipyridine]-6-carboxamide], the Ki was below 10 nM.

In the case of `CCOc1ncccc1-c1ccc(N2CC[C@H](Oc3ccc(C)cc3C#N)C[C@@H]2CC)c(C(=O)N[C@@H]2CCN(C)C2)n1` (mixture of isomers) [2-17, 5-[cis-4-(2-cyano-4-methylphenoxy)-2-ethylpiperidin-1-yl]-2′-ethoxy-N-[(3R)-1-methylpyrrolidin-3-yl]-[2,3′-bipyridine]-6-carboxamide], the Ki is below 10 nM.

Turning to `CCOc1ncccc1-c1ccc(N2CC[C@H](Oc3ccc(C(F)(F)F)nc3C#N)C[C@@H]2CC)c(C(=O)N[C@@H]2CN3CCC2CC3)n1` (mixture of isomers) [2-19, N-[(3S)-1-azabicyclo[2.2.2]octan-3-yl]-5-(cis-4-{[2-cyano-6-(trifluoromethyl)pyridin-3-yl]oxy}-2-ethylpiperidin-1-yl)-2′-ethoxy-[2,3′-bipyridine]-6-carboxamide], the Ki is below 10 nM.

`CCOc1ccccc1-c1ccc(N2CC[C@H](Oc3ccc(Cl)cc3C#N)C[C@@H]2C)c(C(=O)N[C@@H]2CCN(C)C2)n1` (mixture of isomers) [2-24, 3-[cis-4-(4-chloro-2-cyanophenoxy)-2-methylpiperidin-1-yl]-6-(2-ethoxyphenyl)-N-[(3R)-1-methylpyrrolidin-3-yl]pyridine-2-carboxamide]: the Ki is below 10 nM.

Turning to `CCOc1ncccc1-c1ccc(N2CC[C@H](Oc3ccc(F)cc3C#N)C[C@@H]2C2CC2)c(C(=O)N[C@@H]2CCN(C)C2)n1` (mixture of isomers) [2-25, 5-[cis-4-(2-cyano-4-fluorophenoxy)-2-cyclopropylpiperidin-1-yl]-2′-ethoxy-N-[(3R)-1-methylpyrrolidin-3-yl]-[2,3′-bipyridine]-6-carboxamide], the Ki is below 10 nM.

Consider `CCOc1ncccc1-c1ccc(N2CC[C@@H](Oc3ccc(C(F)(F)F)cc3C#N)C[C@H]2CC)c(O[C@@H]2CCN(C)C2)n1` (mixture of isomers) [3-8, 2-{[rac-(2R,4R)-1-(2′-ethoxy-6-{[(3R)-1-methylpyrrolidin-3-yl]oxy}-[2,3′-bipyridin]-5-yl)-2-ethylpiperidin-4-yl]oxy}-5-(trifluoromethyl)benzonitrile], for which the Ki was in the range of 10 to 100 nM.

Regarding `CCOc1ncccc1-c1ccc(N2CC[C@@H](Oc3ccc(Cl)cc3C(F)(F)F)C[C@H]2CC)c(O[C@@H]2CCN(C)C2)n1` (mixture of isomers) [3-9, 5-[rac-(2R,4R)-4-[4-chloro-2-(trifluoromethyl)phenoxy]-2-ethylpiperidin-1-yl]-2′-ethoxy-6-{[(3R)-1-methylpyrrolidin-3-yl]oxy}-2,3′-bipyridine], the Ki is 10 to 100 nM.

`CCOc1ncccc1-c1ccc(N2CC[C@@H](Oc3ccc(C(F)(F)F)cc3C#N)C[C@H]2CC)c(C(=O)N[C@@H]2CCN(C)C2)n1` (racemic) [2-2, 5-[(cis*-4-[2-cyano-4-(trifluoromethyl)phenoxy]-2-ethylpiperidin-1-yl]-2′-ethoxy-N-[(3R)-1-methylpyrrolidin-3-yl]-[2,3′-bipyridine]-6-carboxamide]: the Ki was below 10 nM.

For `CCOc1ncccc1-c1ccc(N2CC[C@H](Oc3ccc(C(F)(F)F)cc3C#N)C[C@H]2C2CC2)c(C(=O)N[C@@H]2CCNC2)n1` (racemic) [2-3, 5-[trans*4-[2-cyano-4-(trifluoromethyl)phenoxy]-2-cyclopropylpiperidin-1-yl]-2′-ethoxy-N-[(3R)-pyrrolidin-3-yl]-[2,3′-bipyridine]-6-carboxamide], the Ki lay in the range of 10 to 100 nM.

Regarding `CCOc1ncccc1-c1ccc(N2CC[C@H](Oc3ccc(C(F)(F)F)cc3C#N)C[C@H]2C2CC2)c(C(=O)N[C@@H]2CCN(C)C2)n1` (racemic) [2-4, 5-[trans*4-[2-cyano-4-(trifluoromethyl)phenoxy]-2-cyclopropylpiperidin-1-yl]-2′-ethoxy-N-[(3R)-1-methylpyrrolidin-3-yl]-[2,3′-bipyridine]-6-carboxamide], the Ki is below 10 nM.

Turning to `CCOc1ncccc1-c1ccc(N2CC[C@@H](Oc3ccc(C(F)(F)F)cc3C#N)C[C@H]2C2CC2)c(C(=O)N[C@@H]2CCNC2)n1` (racemic) [2-5, 5-[cis*4-[2-cyano-4-(trifluoromethyl)phenoxy]-2-cyclopropylpiperidin-1-yl]-2′-ethoxy-N-[(3R)-pyrrolidin-3-yl]-[2,3′-bipyridine]-6-carboxamide], the Ki was below 10 nM.

Consider `CCOc1ncccc1-c1ccc(N2CC[C@@H](Oc3ccc(Cl)nc3C(F)(F)F)C[C@H]2C2CC2)c(C(=O)N[C@@H]2CCN(C)C2)n1` (racemic) [2-8, 5-[cis*-4-{[6-chloro-2-(trifluoromethyl)pyridin-3-yl]oxy}-2-cyclopropylpiperidin-1-yl]-2′-ethoxy-N-[(3R)-1-methylpyrrolidin-3-yl]-[2,3′-bipyridine]-6-carboxamide], for which the Ki is below 10 nM.

Turning to `CCOc1ccc(O[C@@H]2CCN(c3ccc(-c4cccnc4OCC)nc3C(=O)N[C@@H]3CCN(C)C3)[C@H](C3CC3)C2)c(C(F)(F)F)n1` (racemic) [2-13, 5-[cis*-2-cyclopropyl-4-{[6-ethoxy-2-(trifluoromethyl)pyridin-3-yl]oxy}piperidin-1-yl]-2′-ethoxy-N-[(3R)-1-methylpyrrolidin-3-yl]-[2,3′-bipyridine]-6-carboxamide], the Ki is below 10 nM.
